Like-named read-outs stand apart in the source and are kept apart here.
Columns and labels:
HXB2-strain of HIV = assay: Antiviral assay: protection of HIV-infected MT4 cells from cell death (MTT); assay type: cell-based; conditions: Human immunodeficiency virus 1, 120 h; MT4 cells infected with HXB2-strain of HIV, 5 d, MTT cell viability
Description: Anti-HIV antiviral activity was assessed using an adaptation of the method of Pauwels et al. {Pauwels et al., 1988, J Virol Methods 20:309-321}. The method is based on the ability of compounds to protect HIV-infected T lymphoblastoid cells (MT4 cells) from cell-death mediated by the infection. The endpoint of the assay was calculated as the concentration of compound at which the cell viability of the culture was preserved by 50% (‘50% inhibitory concentration’, IC50). The cell viability of a culture was determined by the uptake of soluble, yellow 3-[4,5-dimethylthiazol-2-yl]-2,5-diphenyltetrazolium bromide (MTT) and its reduction to a purple insoluble formazan salt. After solubilization, spectrophotometric methods were employed to measure the amount of formazan product.
MT4 cells were prepared to be in logarithmic-phase growth and a total of 2×10^6 cells infected with the HXB2-strain of HIV at a multiplicity of 0.0001 infectious units of virus per cell in a total volume of between 200-500 microliters. The cells were incubated with virus for one h at 37° C. before removal of virus. The cells are then washed in 0.01 M phosphate buffered saline, pH 7.2 before being resuspensed in culture medium for incubation in culture with serial dilutions of test compound. The culture medium used was RPMI 1640 without phenol red, supplemented with penicillin, streptomycin, L-glutamine and 10% fetal calf serum (GM10).
Test compounds were prepared as 2 mM solutions in dimethyl sulphoxide (DMSO). Four replicate, serial 2-fold dilutions in GM10 were then prepared and 50 microliters amounts placed in 96-well plates over a final nanomolar concentration range of 625-1.22. Fifty microliters GM10 and 3.5×10^4 infected cells were then added to each well. Control cultures containing no cells (blank), uninfected cells (100% viability; 4 replicates) and infected cells without compound (total virus-mediated cell death; 4 replicates) were also prepared. The cultures were then incubated at 37° C. in a humidified atmosphere of 5% CO2 in air for 5 d.
A fresh solution of 5 mg/mL MTT was prepared in 0.01 M phosphate buffered saline, pH 7.2 and 20 microliters added to each culture. The cultures were further incubated as before for 2 h. They were then mixed by pipetting up and down and 170 microliters of Triton X-100 in acidified isopropanol (10% v/v Triton X-100 in 1:250 mixture of concentrated HCl in isopropanol). When the formazan deposit was fully solubilized by further mixing, the absorbance (OD) of the cultures was measured at 540 nm and 690 nm wavelength (690 nm readings were used as blanks for artefacts between wells). The percent protection for each treated culture can be calculated from the equation: [formula]

HIV-1 RT = HIV-1 RT (Human immunodeficiency virus type 1 group M subtype B, UniProt P04585); assay: HIV-1 Reverse Transcriptase Assay: Inhibitor IC50 Determination; assay type: biochemical
Description: HIV-1 Reverse Transcriptase Assay: Inhibitor IC50 Determination
HIV-1 RT assay was carried out in 96-well Millipore filtermat NOB50 plates using purified recombinant enzyme and a poly(rA)/oligo(dT)16 template-primer in a total volume of 50 μL. The assay constituents were 50 mM Tris/HCl, 50 mM NaCl, 1 mM EDTA, 6 mM MgC2, 5 μM dTTP, 0.1 μCi [^3H] dTTP, 5 μg/ml poly (rA) pre annealed to 2.5 μg/ml oligo (dT)16 and a range of inhibitor concentrations in a final concentration of 10% DMSO. Reactions were initiated by adding 5 nM HIV-1 RT and after incubation at 37° C. for 30 min, they were stopped by the addition of 50 μl ice cold 20% TCA and allowed to precipitate at 4° C. for 30 min. The precipitates were collected by applying vacuum to the plate and sequentially washing with 2×200 μl of 10% TCA and 2×200 μl 70% ethanol. Finally the plates were dried and radioactivity counted in a Wallac Microbeta 1450 after the addition of 15 VI scintillation fluid per well. IC50's were calculated by plotting % inhibition versus log10 inhibitor concentrations.

[1] = purified recombinant enzyme, poly(rA)/oligo(dT)16 template-primer, 37° C. 30 min, read-out: RT IC50/nM

Structure (SMILES) | IC50 (HXB2-strain of HIV) | IC50 (HIV-1 RT; [1]) | IC50 (HIV-1 RT)
CCn1nc(CO)c(Cc2ccncc2)c1Sc1cc(Cl)cc(Cl)c1 | 30 nM | 183 nM | –
COC(=O)NCc1nn(C(C)C)c(Sc2cc(Cl)cc(Cl)c2)c1Cc1ccncc1 | – | 525 nM | –
CC(C)n1nc(COC(N)=O)c(Cc2ccncc2)c1Sc1cc(Cl)cc(Cl)c1 | 1 nM | – | 32 nM
CC(C)n1nc(CO)c(Cc2ccncc2)c1Sc1cc(Cl)cc(Cl)c1 | 1.3 nM | 62 nM | –
CC(C)n1nc(CO)c(Cc2ccncc2)c1Sc1cc(F)cc(F)c1 | 6 nM | 206 nM | –
CCc1c(COC(N)=O)nn(C(C)C)c1Sc1cc(Cl)cc(Cl)c1 | – | 61 nM | –
CC(C)n1nc(CN)c(Cc2ccncc2)c1Sc1cc(Cl)cc(Cl)c1 | 7 nM | 714 nM | –
CC(C)n1nc(CNC(N)=O)c(Cc2ccncc2)c1Sc1cc(Cl)cc(Cl)c1 | 1 nM | 44 nM | –
CC(C)n1nc(COC(N)=O)c(COCc2ccncc2)c1Sc1cc(Cl)cc(Cl)c1 | 13 nM | 99 nM | –
Cc1ncc(Br)c(Cc2c(CO)nn(C(C)C)c2Sc2cc(Cl)cc(Cl)c2)n1 | – | 518 nM | –
CC(C)n1nc(CO)c(Cc2cccs2)c1Sc1cc(Cl)cc(Cl)c1 | 93 nM | 434 nM | –
CC(C)n1nc(COC(N)=O)c(CO)c1Sc1cc(Cl)cc(Cl)c1 | – | 6300 nM | –
COc1cc(Cc2c(CO)nn(C(C)C)c2Sc2cc(Cl)cc(Cl)c2)ccn1 | 38 nM | 51 nM | –
CC(C)n1nc(CO)c(Cc2ccc(F)c(F)c2)c1Sc1cc(Cl)cc(Cl)c1 | – | 123 nM | –
CC(C)n1nc(CNS(C)(=O)=O)c(Cc2ccncc2)c1Sc1cc(Cl)cc(Cl)c1 | – | 7920 nM | –
CC(C)n1nc(COC(N)=O)c(Cc2cccs2)c1Sc1cc(Cl)cc(Cl)c1 | 30 nM | 211 nM | –
CC(C)n1nc(CO)c(COCc2cccc(C#N)c2)c1Sc1cc(Cl)cc(Cl)c1 | – | 250 nM | –
CC(C)n1nc(COC(N)=O)c(Cc2ccncc2)c1Sc1cc(Cl)cc(Br)c1 | 3 nM | 31 nM | –

— US6538015B1, “Anti-HIV pyrazole derivatives” (Hoffmann-La Roche Inc., priority 2001, dated 2003)
